Measured values reported in patent US9801901B2, “Alginate oligomers for use in overcoming multidrug resistance in bacteria” (priority 2009, dated 2017).
Values after ≈ are worked out from the molar mass of the structure shown. Marks after values point to notes of the source that are not given here.

Tested on: V23 1322 Burkholderia cepacia
Assay: MIC assay, CAMHB with alginate oligomer, no visible growth
Format: cell-based
Conditions: Table 5, V23 MDR Burk cep

Q: For CC1(C)C[C@@H]1C(=O)N/C(=C\CCCCSC[C@H](N)C(=O)O)C(=O)O [Primaxin, Imipenem/cilastatin], which MIC (Burkholderia cepacia, OligoCF-5/20 0G) is on record?
A: 32 µg/mL (≈ 89.3 µM)

Q: What about the MIC (OligoCF-5/20 +2% G) of the same compound?
A: 32 µg/mL (≈ 89.3 µM)

Q: And the MIC (OligoCF-5/20 +6% G)?
A: 32 µg/mL (≈ 89.3 µM)

Q: What about the MIC (OligoCF-5/20 +10% G) of the same compound?
A: 8^† μg/ml
